Earlier results on 2 molecules are cited in patent publication US4083974A, “Topical steroidal anti-inflammatory preparations containing polyoxypropylene 15 stearyl ether” (The Upjohn Company, priority 1977, dated 1978).

For series [1] the following is noted: known property of the prior-art solvent.
For series [2] the following is noted: known property from the art.
The subject of the next series is bacterial. To be noted: prior art; composition contains approximately 15% ethyl alcohol.

Regarding `CC(O)CO` (stereo not drawn) [Propylene glycol, propylene glycol], the “irritation to the skin” value in series [1] was “irritating to the skin”. Further, the lubricant properties result in series [2] is given as “non-lubricant”. As to `CCO` [ethyl alcohol], the anti-bacterial activity result with bacterial is recorded as “known anti-bacterial agent”.
